{"source": "patent US20240293367A1", "about": "“METHODS OF TREATING DISORDERS WITH A […]” (Cybin IRL Limited, priority 2023, published 2024)", "test_system": "participants with MDD", "assay": "MADRS total score, response, remission and relapse in MDD participants (Phase I/IIa study)", "format": "in vivo, human", "details": "for effect size, Cohen's d, versus placebo (MADRS): Day 21", "text": "Cohorts 1, 4, 5, and 6 of the study was comprised of participants with MDD. Cohorts 2, 3, and the relative BA cohort of the study were comprised of normal healthy volunteers (NHV). […] MDD participants had been on a stable dose of antidepressant medication for at least one month prior to screening with an inadequate response to that antidepressant medication as judged by the Investigator, and continued to receive their prescribed antidepressant throughout the course of the study.\nCohorts 4 and 5. For Cohorts 4 and 5, 12 participants each (24 participants total) were randomized in a 3:1 ratio to receive 12 mg of psilocin-d10 or matched placebo in a single dosing session on Day 1. Following a 21-day interval, all participants received a dose of 12 mg psilocin-d10 on Day 22 (second dose for participants originally randomized to psilocin-d10, first dose for participants randomized to placebo), and were followed to Day 42.\nCohort 6. For Cohort 6, 12 participants were randomized in a 3:1 ratio to receive 16 mg of psilocin-d10 or matched placebo in a single dosing session on Day 1. Following a 21-day interval, all participants received a dose of 16 mg psilocin-d10 on Day 22 (second dose for participants originally randomized to psilocin-d10, first dose for participants randomized to placebo), and were followed to Day 42. Given the availability of data and considering that the secondary endpoint was a change in baseline to Day 21 in MADRS, efficacy data presented herein considers the data cut off of Day 21 postdose. One participant had to be withdrawn from the study due to pregnancy.\nThe primary efficacy endpoint defined in the statistical analysis plan (SAP) is the change from baseline to Day 21 of the total Montgomery-Åsberg Depression Rating Scale (MADRS) score compared to placebo, therefore efficacy data presented herein considers the data cut off of Day 21 postdose. Mean total score and change from baseline on Montgomery-Åsberg Depression Rating Scale (MADRS) on days 1, 10, 17, 22, 31, 38, and 42 are presented as secondary efficacy endpoints.\nThe secondary objective of the study was to evaluate the efficacy of psilocin-d10 in treating symptoms of MDD as measured by the change from baseline to Day 21 of the MADRS total score in the Intent-to-Treat population, with data analyzed according to the treatment group each participant was randomized to receive. Data from participants in Cohorts 4, 5, and 6 randomized to placebo was pooled for analysis purposes (N=9). Data from participants in Cohorts 4, 5, and 6 randomized to 12 mg or 16 mg psilocin-d10 (N=27) was also pooled for analysis.\nData from the study was also analyzed according to dosage level of psilocin-d10. Data from participants in Cohorts 4, 5, and 6 randomized to placebo was pooled for analysis purposes (N=9). Data from participants in Cohorts 4 and 5 (treated with 12 mg psilocin-d10) was also pooled for analysis (N=18).\nThe rates of remission, response, and relapse were also evaluated within the study. […] Additionally, 20.8% (5 out of 24) of participants in the psilocin-do group (12 mg and 16 mg combined) were in remission (remitters) (defined as a MADRS score of ≤10) compared to 0% for placebo at Day 21. The same 5 participants who were in remission were also classified as responders. None of the participants relapsed at Day 21 compared to baseline.\nThe MADRS is a 10-item scale with ratings based on a clinical interview which moves from broadly phrased questions about symptoms to more detailed ones allowing a precise rating of severity. A rating scale from 0 to 6 is employed and the rater must decide whether the rating lies on defined scale steps (0, 2, 4, 6) or between them (1, 3, 5). The MADRS can be used for any time interval between ratings, be it weekly or otherwise, and the time interval should be recorded. […]", "key": {"[1]": {"details": "Day 42, Cohort 4, two 12 mg doses"}, "[2]": {"details": "Day 42, Cohort 5, two 12 mg doses"}, "[3]": {"details": "Day 42, Cohort 6, two 16 mg doses"}, "[4]": {"details": "Day 42, Cohorts 4 and 5, two 12 mg doses"}, "[5]": {"details": "Day 42, Placebo/active group, one dose Day 22"}, "[6]": {"details": "Day 42, Placebo/active group: one psilocin-d10 dose Day 22"}, "[7]": {"details": "Day 42, two 12 mg doses (11 out of 14)"}, "[8]": {"details": "Day 42, two 12 mg doses, Cohorts 4 and 5"}, "[9]": {"details": "Day 42, two 16 mg doses, Cohort 6"}, "[10]": {"details": "Day 42, two doses (Day 1, Day 22), 12 and 16 mg pooled"}, "[11]": {"details": "Day 42, two doses, 12 and 16 mg pooled"}, "[12]": {"details": "Day 42, two doses, pooled 12 mg and 16 mg"}}, "note": "“And” between values parts separate entries of the source, which are not always exact repeats. Identical values can stand only once."}
{"smiles": "[2H]C([2H])([2H])N(C([2H])([2H])[2H])C([2H])([2H])C([2H])([2H])c1c[nH]c2cccc(O)c12", "note": "[psilocin-d10, 3-(2-(bis(methyl-d3)amino)ethyl-1,1,2,2-d4)-1H-indol-4-ol]", "values": [{"measurement": "Relapse - Yes", "setting": "[1]", "result": "0 (0.0) n (%)"}, {"measurement": "Remission (MADRS ≤10) - Yes", "setting": "[1]", "result": "5 (71.4) n (%)"}, {"measurement": "Remission - No", "setting": "[1]", "result": "2 (28.6) n (%)"}, {"measurement": "Response (≥50% reduction from baseline MADRS) - Yes", "setting": "[1]", "result": "5 (71.4) n (%)"}, {"measurement": "Response - No", "setting": "[1]", "result": "2 (28.6) n (%)"}, {"measurement": "Relapse - No", "setting": "[2]", "result": "8 (100.0) n (%)"}, {"measurement": "Relapse - Yes", "setting": "[2]", "result": "0 (0.0) n (%)"}, {"measurement": "Remission (MADRS ≤10) - Yes", "setting": "[2]", "result": "6 (85.7) n (%)"}, {"measurement": "Remission - No", "setting": "[2]", "result": "1 (14.3) n (%)"}, {"measurement": "Response (≥50% reduction from baseline MADRS) - Yes", "setting": "[2]", "result": "6 (85.7) n (%)"}, {"measurement": "Response - No", "setting": "[2]", "result": "1 (14.3) n (%)"}, {"measurement": "Relapse - No", "setting": "[3]", "result": "8 (100.0) n (%)"}, {"measurement": "Relapse - Yes", "setting": "[3]", "result": "0 (0.0) n (%)"}, {"measurement": "Remission (MADRS ≤10) - Yes", "setting": "[3]", "result": "4 (50.0) n (%)"}, {"measurement": "Remission - No", "setting": "[3]", "result": "4 (50.0) n (%)"}, {"measurement": "Response (≥50% reduction from baseline MADRS) - Yes", "setting": "[3]", "result": "6 (75.0) n (%)"}, {"measurement": "Response - No", "setting": "[3]", "result": "2 (25.0) n (%)"}, {"measurement": "Relapse - No", "setting": "[4]", "result": "15 (100.0) n (%)"}, {"measurement": "Relapse - Yes", "setting": "[4]", "result": "0 (0.0) n (%)"}, {"measurement": "Remission (MADRS ≤10) - Yes", "setting": "[4]", "result": "11 (78.6) n (%)"}, {"measurement": "Remission - No", "setting": "[4]", "result": "3 (21.4) n (%)"}, {"measurement": "Response (≥50% reduction from baseline MADRS) - Yes", "setting": "[4]", "result": "11 (78.6) n (%)"}, {"measurement": "Response - No", "setting": "[4]", "result": "3 (21.4) n (%)"}, {"measurement": "Relapse - No", "setting": "[5]", "result": "9 (100.0) n (%)"}, {"measurement": "Relapse - Yes", "setting": "[5]", "result": "0 (0.0) n (%)"}, {"measurement": "Remission - No", "setting": "[5]", "result": "5 (55.6) n (%)"}, {"measurement": "Response (≥50% reduction from baseline MADRS) - Yes", "setting": "[5]", "result": "4 (44.4) n (%)"}, {"measurement": "Response - No", "setting": "[5]", "result": "5 (55.6) n (%)"}, {"measurement": "Remission (MADRS ≤10) - Yes", "setting": "Day 42, Placebo/active group, one dose Day 22 (pooled 12 mg and 16 mg)", "result": "4 (44.4) n (%)"}, {"measurement": "MADRS total score, Change from Baseline, Median", "setting": "[6]", "result": "−14.0"}, {"measurement": "MADRS total score, Observed, Median", "setting": "[6]", "result": 16.0}, {"measurement": "MADRS total score, Change from Baseline, Mean", "setting": "Day 42, Placebo/active group: one psilocin-d10 dose Day 22 (12 and 16 mg pooled)", "result": "−16.4"}, {"measurement": "MADRS total score, Observed, Mean", "setting": "Day 42, Placebo/active group: placebo Day 1, one psilocin-d10 dose Day 22 (12 and 16 mg pooled)", "result": 15.1}, {"measurement": "participants in remission", "setting": "Day 42, after second dose, 12 mg and 16 mg combined (15 out of 22)", "result": 68.2, "unit": "%"}, {"measurement": "participants with response", "setting": "Day 42, after second dose, 12 mg and 16 mg combined (17 out of 22)", "result": "77.3% and 77%"}, {"measurement": "participants with response", "setting": "Day 42, placebo/psilocin-d10 group, first dose Day 22 (4 out of 9)", "result": 44.4, "unit": "%"}, {"measurement": "participants in remission", "setting": "[7]", "result": 78.6, "unit": "%"}, {"measurement": "participants with response", "setting": "[7]", "result": 78.6, "unit": "%"}, {"measurement": "MADRS total score, Change from Baseline, Mean", "setting": "[8]", "result": "−22.8"}, {"measurement": "MADRS total score, Change from Baseline, Median", "setting": "[8]", "result": "−25.5"}, {"measurement": "MADRS total score, Observed, Mean", "setting": "[8]", "result": 9.4}, {"measurement": "MADRS total score, Observed, Median", "setting": "[8]", "result": 3.5}, {"measurement": "participants in remission", "setting": "Day 42, two 16 mg doses (4 out of 8)", "result": 50.0, "unit": "%"}, {"measurement": "participants with response", "setting": "Day 42, two 16 mg doses (6 out of 8)", "result": 75, "unit": "%"}, {"measurement": "MADRS total score, Change from Baseline, Mean", "setting": "[9]", "result": "−17.6"}, {"measurement": "MADRS total score, Change from Baseline, Median", "setting": "[9]", "result": "−20.5"}, {"measurement": "MADRS total score, Observed, Mean", "setting": "[9]", "result": 13.0}, {"measurement": "MADRS total score, Observed, Median", "setting": "[9]", "result": 11.5}, {"measurement": "MADRS total score, Change from Baseline, Mean", "setting": "[10]", "result": "−20.9"}, {"measurement": "MADRS total score, Observed, Mean", "setting": "[10]", "result": 10.7}, {"measurement": "MADRS total score, Change from Baseline, Median", "setting": "[11]", "result": "−24.5"}, {"measurement": "MADRS total score, Observed, Median", "setting": "[11]", "result": 7.0}, {"measurement": "Relapse - No", "setting": "[12]", "result": "22 (100.0) n (%)"}, {"measurement": "Relapse - Yes", "setting": "[12]", "result": "0 (0.0) n (%)"}, {"measurement": "Remission (MADRS ≤10) - Yes", "setting": "[12]", "result": "15 (68.2) n (%)"}, {"measurement": "Remission - No", "setting": "[12]", "result": "7 (31.8) n (%)"}, {"measurement": "Response (≥50% reduction from baseline MADRS) - Yes", "setting": "[12]", "result": "17 (77.3) n (%)"}, {"measurement": "Response - No", "setting": "[12]", "result": "5 (22.7) n (%)"}, {"measurement": "MADRS, Difference in LS Means, 12 mg (two doses) compared to Placebo/active (one dose)", "setting": "Day 42, 95% CI (−14.2, 7.5), P 0.5299", "result": "−3.34"}, {"measurement": "MADRS, Difference in LS Means, 12 mg compared to Cohort 6 (16 mg)", "setting": "Day 42, 95% CI (−15.3, 22.5), P 0.6999", "result": 3.58}, {"measurement": "MADRS, difference in LS means, 16 mg (two doses) versus Placebo/active (one dose)", "setting": "Day 42, 95% CI −22.8, 7.2, p=0.2931", "result": "−7.79"}, {"measurement": "participants meeting criteria for response", "setting": "Day 126, two 12 mg doses (Day 1, Day 22), N=15", "result": 73, "unit": "%"}, {"measurement": "participants meeting criteria for remission", "setting": "Day 126, two 12 mg doses, N=15", "result": 60, "unit": "%"}, {"measurement": "participants meeting criteria for response", "setting": "Day 126, two 16 mg doses (Day 1, Day 22), N=8", "result": 75, "unit": "%"}, {"measurement": "participants meeting criteria for remission", "setting": "Day 126, two 16 mg doses, N=8", "result": 75, "unit": "%"}, {"measurement": "effect size, Cohen's d, versus placebo (MADRS)", "setting": "single 12 mg dose, 95% CI: 0.92, 3.37", "result": 2.15}, {"measurement": "effect size, Cohen's d, versus placebo (MADRS)", "setting": "single 16 mg dose", "result": 2.54}]}
